# Results reported in patent EP0110746A1, “Derivatives of 3-amino-1-phenoxy-2-propanol, their therapeutical use and process for their preparation” (LABORATOIRE L. LAFON Société anonyme dite:, priority 1982, dated 1984).
# Experiments:
# [1] = Solubility in water; assay type: physicochemical; details: read-out: soluble dans l'eau
# Experimental: La base libre ainsi obtenue est traitée au reflux dans de l'éthanol anhydre par de l'éthanol chlorhydrique. Il se forme un précipité que l'on isole pour recueillir 36,3 g (rendement = 69,75%) de CRL 41 058 qui se présente sous la forme d'une poudre légèrement beige soluble à 12,5 g/1 dans l'eau. Finst (Köfler) ^= 216°C.
# [2] = test system: homme; assay: Clinical trials in man; assay type: in vivo; details: daily dose 40 à 50 mg in 2 à 3 intakes, 2 à 6 semaines
# [3] = test system: tachycardie induite par isoprénaline; assay: Anaesthetised rat: determination of the effective β-blocking dose; assay type: in vivo; details: iv, I.V., 0,03 à 0,3 µg/kg I.V. isoprénaline, read-out: dose qui bloque la tachycardie induite par isoprénaline
# Experimental: Des rats normotendus sont anesthésiés au pentobarbital (75 mg/kg I.P.) et atropinés (1 mg/kg I.P.) On mesure leur pression artérielle carotidienne, leur fréquence cardiaque par intégration de la pression artérielle. Une veine jugulaire […] pour les injections. Si besoin est, l'anesthésie est entretenue par injection sous-cutanée de pentobarbital. 3 rats reçoivent le CRL 41 058 par voie intraveineuse, aux doses successives de 0,3 mg/kg, 1 mg/kg,3 mg/kg, 10 mg/kg et, éventuellement, 30 mg/kg. On détermine la dose qui bloque […] induite par 0,03 à 0,3μg/kg […] (dose nécessaire pour obtenir une augmentation de fréquence cardiaque de 30 à 50 bat/min). On trouve que la dose en question est de 1 mg/kg I.V.
# [4] = test system: oreillettes droites isolées de cobaye; assay: Isolated guinea pig right atria: pA2 against chronotropic effect of isoprenaline, own inotropic and chronotropic action
# From the text: Sur ces oreillettes, on évalue aussi l'action inotrope et chronotrope propre du CRL 41 058; aucune moyenne n'a pu être faite, les concentrations et l'ordre d'administration des concentrations étant variables. […] Par contre, si,par exemple, la concentration de 10^-6 M est administrée après des concentrations inférieures qui ont été stimulantes, cette concentration de 10^-6 M est ino et chrono (ce phénomène pourrait laisser supposer une libération de catécholamines).
# [5] = test system: rat mâle; assay: Global behaviour and reactivities, rat; assay type: in vivo
# Experimental: (§1) On a résumé ci-après une partie des essais qui ont été entrepris avec le CRL 41 058 (produit de l'exemple 1). Dans ces essais et sauf indications contraires, le CRL 41 058, en suspension dans une solution aqueuse de gomme arabique pour des concentrations supérieures ou égales à 3 g/1, et en solution dans de l'eau distillée pour des concentrations inférieures à 3g/l, a été administré par voie intrapéritonéale sous un volume de 20 ml/kg chez la souris mâle et de 5 ml/kg chez le rat mâle.
# [6] = test system: rats génétiquement hypertendus; assay: Awake genetically hypertensive rat: arterial pressure and heart rate; assay type: in vivo; details: 20 mg/kg V.B.
# Experimental: 6 rats génétiquement hypertendus, à cathéter artériel fémoral implanté, reçoivent le CRL 41 058 à la dose de 20 mg/kg V.B.
# [7] = test system: souris mâle; assay: Global behaviour and reactivities, mouse; assay type: in vivo
# Experimental: as §1
# [8] = test system: souris mâle; assay: in vivo; details: mouse, ip
# Experimental: as §1
# (§2) Chez la souris màle par voie I.P., la DL-0 (dose maximale non mortelle) est supérieure à 64 mg/kg, et la DL-30 (dose à laquelle 30% des animaux meurent) est de l'ordre de 128 mg/kg. Le CRL 41 058 est moins toxique que le chlorhydrate de 1-(3,5-diméthoxy- phénoxy)-3-tertiobutylamino-2-propanol qui a une DL-50 par voie I.P. chez la souris mâle de l'ordre de 73 mg/kg.
# [9] = test system: chiens anesthésiés au nembutal; assay: Cardiovascular properties, anaesthetised dog, intraduodenal route; assay type: in vivo, chien
# Experimental: Trois chiens (poids moyen : 13,6 kg) anesthésiés au nembutal reçoivent le CRL 41 058 par voie intraduodénale aux doses successives de 0,5 mg/kg, 1 mg/kg, 2,5 mg/kg, 5 mg/kg et 10 mg/kg. On mesure la pression artérielle (il est rappelé que 1 mm Hg correspond à environ 1,333 x 102 Pa), la fréquence cardiaque, le débit artériel fémoral, le débit artériel vertébral, la température rectale, et on note la coloration de la peau et la coloration de la bile recueillie par cathétérisation du cholédoque après ligature du cystique.
# [10] = test system: rats normotendus anesthésiés au pentobarbital; assay: Anaesthetised rat: duration of the β-blocking action; assay type: in vivo
# Experimental: Des rats normotendus sont anesthésiés au pentobarbital (75 mg/kg I.P.) et atropinés (1 mg/kg I.P.) On mesure leur pression artérielle carotidienne, leur fréquence cardiaque par intégration de la pression artérielle. Une veine jugulaire est cathétérisée pour les injections. Si besoin est, l'anesthésie est entretenue par injection sous-cutanée de pentobarbital.
# 5 rats reçoivent 1 mg/kg de CRL 41 058 par voie I.V. 0n observe que : • - la pression artérielle, diastolique n'est pas modifiée, elle reste voisine de 91 mm Hg; et • - la fréquence cardiaque passe, en 5 min, de 345 à 290 bat/min (soit -16%), la bradycardie maximale est obtenue au temps 20 min : 280 bat/min (soit -19%). Après 90 min, la fréquence cardiaque est à 307 bat/min (soit -11%).
# [11] = in vivo; parameters: species or system souris; details: mouse, ip
# Experimental: as §1, §2
structure (smiles),measurement,setting,value
"COc1cc(OC)c(Cl)c(OCC(O)CNC(C)(C)C)c1 (stereo not shown) [CRL 41 058, chlorhydratede 1-(2-chloro-3,5-diméthoxyphénoxy)-3-tertiobutylamino-2-propanol]",solubility,[1],12.5 mg/mL
same,action β-bloquante chez l'homme,[2],confirmé chez l'homme l'intérêt de l'action β-bloquante
same,minimal effective dose,[3],1 mg/kg
same,Kb,"[4]; Cavia porcellus, 0.25 h, 15 min de contact, mean of 5 atria, read-out: pA2 vis-à-vis de l'effet chronotrope de l'isoprénaline (converted)",6.17 nM
same,action inotrope et chronotrope propre,"[4]; maximum at first concentration used, 3 x 10^-8 à 10^-6 M",effet ino + et chrono+
same,symptômes,"[5]; I.P., 0,25 mg/kg, 1 mg/kg et 4 mg/kg",ne provoquent pas de symptômes nets
same,symptômes,"[5]; I.P., 16 mg/kg",sédation fugace (30 min) et déprime la respiration (chez 2 animaux sur 3) pendant 30 min
same,fréquence cardiaque,"[6]; 5 min, baseline 382",322 bat/min
same,fréquence cardiaque (bradycardie maximale),[6]; 2 h,305 bat/min
same,pression artérielle,"[6]; 6 h, baseline 191",167 mm Hg
same,fréquence cardiaque,[6]; 7 h,322 bat/min
same,fréquence cardiaque,[6]; 24 h,330 bat/min
same,pression artérielle,[6]; 24 h,a repris sa valeur témoin
same,symptômes,"[7]; I.P., 0,5 mg/kg, 2 mg/kg et 8 mg/kg",ne provoquent pas de symptômes nets
same,symptômes,"[7]; I.P., 32 mg/kg","sédation inconstante (chez 2 animaux sur 3) et fugace (30 min), une dyspnée (chez 2 animaux sur 3) pendant 15 à 30 min"
same,DL-0 (dose maximale non mortelle),[8],> 64 mg/kg
same,DL-30 (dose à laquelle 30% des animaux meurent),[8],~128 mg/kg
same,effet tachycardisant de l'isoprénaline,"[9]; 100 µg/kg isoprénaline, two dogs, after cumulative dose 19 mg/kg","inférieur à l'effet tachycardisant de 0,3µg/kg d'isoprénaline témoin"
same,minimal effective dose,"[9]; Canis lupus familiaris, intraduodenal, voie intraduodénale, successive doses 0,5 to 10 mg/kg, read-out: dose bradycardisante",≥ 0.5 mg/kg
same,pression artérielle systolique,"[9]; after 1 µg/kg noradrénaline, control 280 mm Hg",221 mm Hg
same,pression artérielle diastolique,"[9]; after 3 µg/kg isoprénaline, cumulative dose 19 mg/kg, control 48 mm Hg",119 mm Hg
same,fréquence cardiaque,"[9]; after 3 µg/kg isoprénaline, cumulative dose 19 mg/kg, control 245 bat/min",110 bat/min
same,coloration de la peau et celle de la bile,[9]; voie intraduodénale,ne sont pas modifiées
same,débit artériel vertébral,[9]; voie intraduodénale,n'est pas vasodilatateur vertébral
same,températures rectale et cutanée,[9]; voie intraduodénale,varient peu
same,action sur la pression artérielle,"[9]; voie intraduodénale, from 0,5 mg/kg",sans aucune action nette
same,augmentation du débit fémoral,"[9]; voie intraduodénale, flow decreases in the two other dogs",présente seulement chez un chien sur trois
same,tachycardie à l'isoprénaline,"[10]; 0,03 µg/kg I.V. isoprénaline after 1 mg/kg I.V., 5 min",totalement inhibée
same,"tachycardie à l'isoprénaline, part de sa valeur reprise","[10]; 0,03 µg/kg I.V. isoprénaline after 1 mg/kg I.V., 20 min",50%
same,"tachycardie à l'isoprénaline, part de sa valeur restaurée","[10]; 0,03 µg/kg I.V. isoprénaline after 1 mg/kg I.V., 60 min",92%
same,variation de pression artérielle à l'isoprénaline par rapport à la variation témoin,"[10]; 0,03 µg/kg I.V. isoprénaline after 1 mg/kg I.V., at 5 min and during 2 h",-69%
same,variation de pression artérielle à l'isoprénaline,"[10]; 0,03 µg/kg I.V. isoprénaline after 1 mg/kg I.V., at 5 min and during 2 h, control -26 mm Hg",+8 mm Hg
same,"fréquence cardiaque, variation","[10]; 1 mg/kg I.V., 5 min",-16%
same,fréquence cardiaque,"[10]; 1 mg/kg I.V., 5 min, baseline 345",290 bat/min
same,fréquence cardiaque (bradycardie maximale),"[10]; 1 mg/kg I.V., 20 min",280 bat/min
same,"fréquence cardiaque, variation (bradycardie maximale)","[10]; 1 mg/kg I.V., 20 min",-19%
same,fréquence cardiaque,"[10]; 1 mg/kg I.V., 90 min",307 bat/min
same,"fréquence cardiaque, variation","[10]; 1 mg/kg I.V., 90 min",-11%
same,pression artérielle diastolique,"[10]; 1 mg/kg I.V., not modified",~91 mm Hg
"COc1cc(OC)cc(OCC(O)CNC(C)(C)C)c1 (stereo not shown) [chlorhydratede 1-(3,5-diméthoxy-phénoxy)-3-tertiobutylamino-2-propanol, reference compound]",LD50,[11],~73 mg/kg
